Values joined by “and” are separate entries in the source; they are usually repeats but may differ in a detail not shown here. Equal entries are not always repeated.
Assays:
PA-TU-8988T cells = test: soft agar colony formation assay, PA-TU-8988T cells; type: cell-based; settings: for IC50: PA-TU-8988T cells, pre-determined by dose-response assay; for Colony count: PA-TU-8988T, duplicate wells
Description: The IC50 and EC50 values for each combination partner (a) and (b) with the specific cell lines are determined from the response plot. A dose-response assay for each combination partner and the combination at different concentrations based on the IC50 values of each combination partner was performed. Computed EC50-EC95 values were then generated by a software (as disclosed herein) based on the drug concentration and the respective colony growth numbers. 6. Cell lines used and number of cells seeded per well [table] (1) Base Layer—0.6% Agar per 300 μL per well. Microwave the agar for 1-2 min so that it is completely melted. Add 5.4 ml of the melted agar into 21.6 ml of pre-warmed media (All media and agar preparation is made in excess for 2.5 plates). Aliquot 300 μl of the suspension into each well, avoiding the first and last columns of the plates. Fill the first and last columns of wells with 500 μl of sterile water or phosphate buffered saline. Incubate the plates in 37° C. incubator for 45 min-1 hr to allow agar to solidify. (2) Middle Layer— 0.3% Agar plus corresponding number of cells per well Trypsinize the adherent cells and suspend them in 5 ml of media. Determine the number of cells in the suspension and calculate the volume of cell suspension required for seeding. Mix the agar and media together first, excluding the volume of cell suspension. Add the cell suspension last into the mixture. Mix well and aliquot 250 μl into each well containing the base layer. Incubate the plates in a 37° C. incubator for 1-1.5 hrs to allow the agar to solidify. […] Prepare the required concentration of compounds based on the IC50 values of each drug. (Pre-determine the IC50 values for each drug with the corresponding cell-line using a dose-response assay) Row A& B: Aliquot 250 μl of diluted Drug A per well Row C&D: Aliquot 250 μl of diluted Drug B per well Row E& F: Aliquot 250 μl of diluted Drug A and B mixed at 1:1 ratio for each well Assay Results Analysis Method • 1. Score the colonies after 2 to 3 weeks depending on the colony forming status for different cell line. • 2. Before scoring the colonies, add 35 μl MTT (5 mg/ml) to the wells with cells and incubate at 37° C. for 2-3 hrs depending on the intensity of colour development. • 3. Once the colonies are stained, count the total number of colonies formed using the Oxford Optronix GelCount® instrument. • 4. Average the total number of colonies obtained for each drug dose point and represent it as a fraction over the control. This represents the fraction of colony growth. […] Incorporate the fraction of inhibition and the corresponding dose values into the Chou Talalay Software available online (http://www.combosyn.com/) to obtain the combination index values. • 6. The combination index values will give an indication as to whether the combined drugs are synergistic, antagonistic or additive in the treated cells, as shown in Table 2 below. FIG. 12 illustrates a dose-response assay plate containing PA-TU-8988T cells (Test 1) after testing compounds at different concentrations based on the IC50 values of each compound. […] is a cell line established from pancreatic adenocarcinoma (pancreatic cancer).

MCAS cells = test: soft agar colony formation assay, MCAS cells; type: cell-based; settings: for IC50: MCAS cells, pre-determined by dose-response assay; for Colony count: MCAS, duplicate wells
Description: The IC50 and EC50 values for each combination partner (a) and (b) with the specific cell lines are determined from the response plot. A dose-response assay for each combination partner and the combination at different concentrations based on the IC50 values of each combination partner was performed. Computed EC50-EC95 values were then generated by a software (as disclosed herein) based on the drug concentration and the respective colony growth numbers.
6. Cell lines used and number of cells seeded per well
(1) Base Layer—0.6% Agar per 300 μL per well.
Microwave the agar for 1-2 min so that it is completely melted. Add 5.4 ml of the melted agar into 21.6 ml of pre-warmed media (All media and agar preparation is made in excess for 2.5 plates). Aliquot 300 μl of the suspension into each well, avoiding the first and last columns of the plates. Fill the first and last columns of wells with 500 μl of sterile water or phosphate buffered saline. Incubate the plates in 37° C. incubator for 45 min-1 hr to allow agar to solidify.
(2) Middle Layer— 0.3% Agar plus corresponding number of cells per well
Trypsinize the adherent cells and suspend them in 5 ml of media. Determine the number of cells in the suspension and calculate the volume of cell suspension required for seeding. Mix the agar and media together first, excluding the volume of cell suspension. Add the cell suspension last into the mixture. Mix well and aliquot 250 μl into each well containing the base layer. Incubate the plates in a 37° C. incubator for 1-1.5 hrs to allow the agar to solidify.
Prepare the required concentration of compounds based on the IC50 values of each drug.
(Pre-determine the IC50 values for each drug with the corresponding cell-line using a dose-response assay)
Row A& B: Aliquot 250 μl of diluted Drug A per well
Row C&D: Aliquot 250 μl of diluted Drug B per well
Row E& F: Aliquot 250 μl of diluted Drug A and B mixed at 1:1 ratio for each well
Assay Results Analysis Method • 1. Score the colonies after 2 to 3 weeks depending on the colony forming status for different cell line. • 2. Before scoring the colonies, add 35 μl MTT (5 mg/ml) to the wells with cells and incubate at 37° C. for 2-3 hrs depending on the intensity of colour development. • 3. Once the colonies are stained, count the total number of colonies formed using the Oxford Optronix GelCount® instrument. • 4. Average the total number of colonies obtained for each drug dose point and represent it as a fraction over the control. This represents the fraction of colony growth. […] Incorporate the fraction of inhibition and the corresponding dose values into the Chou Talalay Software available online (http://www.combosyn.com/) to obtain the combination index values. • 6.
MCAS is a cell line established from ovarian mucinous cystadenocarcinoma (ovarian cancer).

[1] = Test 1, 0.25x IC50: dose Olaparib 0.2525, Ex 1 0.275, combination both 1:1
[2] = Test 1, 0.5x IC50: dose Olaparib 0.505, Ex 1 0.55, combination both 1:1
[3] = Test 1, 1x IC50: dose Olaparib 1.01, Ex 1 1.1, combination both 1:1
[4] = Test 1, 2x IC50: dose Olaparib 2.02, Ex 1 2.2, combination both 1:1
[5] = Test 1, 4x IC50: dose Olaparib 4.04, Ex 1 4.4, combination both 1:1
[6] = Test 2, 0.25x IC50: dose Olaparib 0.2525, Ex 1 0.275, combination both 1:1
[7] = Test 2, 0.5x IC50: dose Olaparib 0.505, Ex 1 0.55, combination both 1:1
[8] = Test 2, 1x IC50: dose Olaparib 1.01, Ex 1 1.1, combination both 1:1
[9] = Test 2, 2x IC50: dose Olaparib 2.02, Ex 1 2.2, combination both 1:1
[10] = Test 2, 4x IC50: dose Olaparib 4.04, Ex 1 4.4, combination both 1:1
[11] = Test 1, 0.25x IC50: dose Olaparib 0.99475, Ex 1 0.07175, combination both 1:1
[12] = Test 1, 0.5x IC50: dose Olaparib 1.9895, Ex 1 0.1435, combination both 1:1
[13] = Test 1, 1x IC50: dose Olaparib 3.979, Ex 1 0.287, combination both 1:1
[14] = Test 1, 2x IC50: dose Olaparib 7.958, Ex 1 0.574, combination both 1:1
[15] = Test 1, 4x IC50: dose Olaparib 15.918, Ex 1 1.148, combination both 1:1
[16] = Test 2, 0.25x IC50: dose Olaparib 0.99475, Ex 1 0.07175, combination both 1:1
[17] = Test 2, 0.5x IC50: dose Olaparib 1.9895, Ex 1 0.1435, combination both 1:1
[18] = Test 2, 1x IC50: dose Olaparib 3.979, Ex 1 0.287, combination both 1:1
[19] = Test 2, 2x IC50: dose Olaparib 7.958, Ex 1 0.574, combination both 1:1
[20] = Test 2, 4x IC50: dose Olaparib 15.916, Ex 1 1.148, combination both 1:1

| IC50 (MCAS cells) [µM] | Structure (SMILES) | Colony count (PA-TU-8988T cells; [1]) | Colony count (PA-TU-8988T cells; [2]) | Colony count (PA-TU-8988T cells; [3]) | Colony count (PA-TU-8988T cells; [4]) | Colony count (PA-TU-8988T cells; [5]) | Colony count (PA-TU-8988T cells; [6]) | Colony count (PA-TU-8988T cells; [7]) | Colony count (PA-TU-8988T cells; [8]) | Colony count (PA-TU-8988T cells; [9]) | Colony count (PA-TU-8988T cells; [10]) | Colony count (MCAS cells; [11]) | Colony count (MCAS cells; [12]) | Colony count (MCAS cells; [13]) | Colony count (MCAS cells; [14]) | Colony count (MCAS cells; [15]) | Colony count (MCAS cells; [16]) | Colony count (MCAS cells; [17]) | Colony count (MCAS cells; [18]) | Colony count (MCAS cells; [19]) | further results |
| --- | --- | --- | --- | --- | --- | --- | --- | --- | --- | --- | --- | --- | --- | --- | --- | --- | --- | --- | --- | --- | --- |
| 0.287 | Cn1c(=O)c2c(ncn2CC(=O)Nc2ccc(-c3ccccc3)nn2)n(C)c1=O [Ex 1, 2-(1,3-dimethyl-2,6-dioxo-2,3-dihydro-1H-purin-7 (6H)-yl)-N-(6-phenylpyridazin-3-yl)acetamide] | 420 and 494 | 343 and 488 | 215 and 393 | 250 and 311 | 212 and 296 | 200 and 237 | 143 and 227 | 156 and 209 | 155 and 215 | 125 and 186 | 598 and 557 | 462 and 445 | 301 and 328 | 252 and 273 | 147 and 151 | 976 and 921 | 744 and 875 | 694 and 706 | 644 and 588 | IC50 (PA-TU-8988T cells): 1.1 µM; Colony count (MCAS cells; [20]): 419 and 326 |
| 3.98 | O=C(c1cc(Cc2n[nH]c(=O)c3ccccc23)ccc1F)N1CCN(C(=O)C2CC2)CC1 [Olaparib, reference compound] | 537 and 426 | 425 and 331 | 398 and 327 | 411 and 325 | 362 and 307 | 222 and 170 | 180 and 155 | 146 and 150 | 136 and 143 | 180 and 125 | 429 and 425 | 363 and 402 | 273 and 227 | 188 and 141 | 112 and 97 | 951 and 929 | 741 and 668 | 393 and 359 | 155 | IC50 (PA-TU-8988T cells; Homo sapiens, PaTu 8988t): 1.01 µM; Colony count (MCAS cells; [20]): 85 and 82 |

Source: patent publication US20230076733A1, “Combination Therapy” (AGENCY FOR SCIENCE, TECHNOLOGY AND RESEARCH, priority 2020, published 2023)
